Data set [1] can be described thus: In vitro human liver microsome stability experiment. The data set is classed as in vitro ADME. Conditions: human liver microsomes; for half-life / microsomal CLint: 1 mg/mL microsome protein, NADPH, 37° C.; for microsomal CLint: read-out: CLint(mic); for CLint scaled: scaled to liver. How it is done:
Eight 96-well incubation plates were prepared, named [NT], Blank60, and NCF60, respectively. […] No compound to be tested or control compound was added to the Blank60 plate and samples were taken after 60 minutes of incubation. The NCF60 plate, in which a potassium phosphate buffer was used instead of an NADPH regeneration system solution (Sigma, N0505), was incubated for 60 minutes. […] Only the working solution of microsomes was added to the Blank60 plate, and the incubation plates Blank60, T5, T15, T30, T45, and T60 except TO and NCF60 were then placed in a water bath at 37° C. for pre-incubation for about 10 minutes. To the TO plate sample, 600 μL of a stop solution (acetonitrile:methanol (95:5, v/v) solution containing 100 ng/mL tolbutamide (Sigma, T0891)) was added first, and then an NADPH regeneration system working solution was added. 98 μL of a potassium phosphate buffer was added to each well of the NCF60 plate and incubated for 60 minutes. After the pre-incubation in the incubation plates Blank60, T5, T15, T30, T45, and T60 was complete, 98 μL of the NADPH regeneration system working solution was added to each sample well to initiate the reaction. After an appropriate incubation time (such as 5, 15, 30, 45, and 60 minutes), 600 μL of the stop solution was added to each sample well and control sample well in the Blank60, […] the reaction. All the sample plates were shaken evenly and centrifuged at 3220×g for 20 minutes. 200 μL of each test sample supernatant was taken and diluted into 200 μL of an aqueous solution containing 0.3% formic acid for LC-MS/MS analysis, and 100 μL of the control sample supernatant was taken and diluted into 300 μL of pure water for LC-MS/MS analysis. Calculations were carried out according to the following formulas: […]
In general terms: Liver microsomes are vesicles of endoplasmic reticulum, rich in cytochrome P450 enzymes.

The target in data set [2] is Ba/F3 (KRAS-G12C-Q99L) cells (Homo sapiens, UniProt P01116, G12C/Q99L, cells depend on it). Description: Proliferation experiment of Ba/F3 (KRAS-G12C-Q99L) cells. The data set is classed as cell-based. The following applies: 72 hours, Cell Titer-Glo, read-out: Test Example 6 IC50. On the procedure:
Engineered cell strain Ba/F3 (KRAS-G12C-Q99L) was a cell strain constructed by the inventors according to the methods described in Warmuth M. et al, Curr Opin Oncol. […] The cells were grown at 37° C. in a humidified incubator with 5% CO2.
(§1) According to the solution described in Cell Titer-Glo Luminescent cell Viability Assay (Promega catalog number #G7570) of Promega Corporation, the number of living cells in the culture was detected. 90 μL of cells (3,000 cells/well) were cultured in a growth medium in a Corning black transparent bottom 96-well plate and were cultured overnight in a 5% CO2 humidified incubator at 37° C. The compound diluted serially in 100% DMSO was added to the cells by a pipette, and the cells were cultured for another 72 hours. 100 μL of the well-mixed Cell Titer-Glo reagent was added to the cells in the 96-well culture plate to lyse the cells and gently mixed. Subsequently, […] was detected on an Envision microplate detector, and the data of each compound was obtained. Finally, the data was input into a suitable software package (such as Prism) for curve fitting analysis.
(In general: Cellular ATP, detected with luciferase, serves as a proxy for viable cell number.)

The target of data set [3] is Ba/F3 (KRAS-G12C-Y96C) cells (Homo sapiens, UniProt P01116, G12C/Y96C, cells depend on it). The experiment in a line: Proliferation experiment of Ba/F3 (KRAS-G12C-Y96C) cells. The data set is classed as cell-based. The following applies: 72 hours, Cell Titer-Glo, read-out: Test Example 3 IC50. How it is done:
Engineered cell strain Ba/F3 (KRAS-G12C-Y96C) was a cell strain constructed by the inventors according to the methods described in Warmuth M. et al, Curr Opin Oncol. […] The cells were grown at 37° C. in a humidified incubator with […].
as §1, with “[…]” for “5%”

For data set [4], the target named is Ba/F3 (KRAS-G12C-H95Q) cells (Homo sapiens, UniProt P01116, G12C/H95Q, cells depend on it). Description: Proliferation experiment of Ba/F3 (KRAS-G12C-H95Q) cells. The data set is classed as cell-based. Conditions: 72 hours, Cell Titer-Glo, read-out: Test Example 4 IC50. On the procedure:
Engineered cell strain Ba/F3 (KRAS-G12C-H95Q) was a cell strain constructed by the inventors according to the methods described in Warmuth M. et al, Curr Opin Oncol. […] The cells were grown at 37° C. in a humidified incubator with […].
as §1

Data set [5] has as its target Ba/F3 (KRAS-G12C-R68S) cells (Homo sapiens, UniProt P01116, G12C/R68S, cells depend on it). Description: Proliferation experiment of Ba/F3 (KRAS-G12C-R68S) cells. The data set is classed as cell-based. Conditions: 72 hours, Cell Titer-Glo, read-out: Test Example 5 IC50. How it is done: Engineered cell strain Ba/F3 (KRAS-G12C-R68S) was a cell strain constructed by the inventors according to the methods described in Warmuth M. et al, Curr Opin Oncol. […] The cells were grown at 37° C. in a humidified incubator with 5% CO2.
as §1

For data set [6], the system named is NCI-H358 cells (KRAS G12C mutant cell line). Description: Proliferation experiment of NCI-H358 cells (Cell Titer-Glo). The data set is classed as cell-based. Conditions: Homo sapiens, 72 hours, read-out: Test Example 1 IC50. On the procedure:
as §1, with “(8,000” for “(3,000”

The subject of data set [7] is NCI-H23 cells (KRAS G12C mutant cell line). Description: Proliferation experiment of NCI-H23 cells (Cell Titer-Glo). The following applies: Homo sapiens, 72 hours, read-out: Test Example 2 IC50. The data set is classed as cell-based. How it is done: Human lung cancer cell line NCI-H23 (ATCC, CRL-5800) was a KRAS G12C mutant cell line.
as §1, with “(8,000” for “(3,000”

Sequence of Ba/F3 (KRAS-G12C-H95Q) cells (P01116 whole entry G12C/H95Q): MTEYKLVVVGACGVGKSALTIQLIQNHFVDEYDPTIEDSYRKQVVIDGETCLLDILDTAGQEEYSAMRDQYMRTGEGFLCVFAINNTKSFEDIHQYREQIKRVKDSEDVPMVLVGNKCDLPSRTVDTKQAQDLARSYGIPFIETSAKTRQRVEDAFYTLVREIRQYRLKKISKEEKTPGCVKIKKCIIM
Sequence of Ba/F3 (KRAS-G12C-Y96C) cells (P01116 whole entry G12C/Y96C): as the sequence (P01116 whole entry G12C/H95Q) above, with Q95H, Y96C counted along it
Sequence of Ba/F3 (KRAS-G12C-Q99L) cells (P01116 whole entry G12C/Q99L): as the sequence (P01116 whole entry G12C/H95Q) above, with Q95H, Q99L counted along it
Sequence of Ba/F3 (KRAS-G12C-R68S) cells (P01116 whole entry G12C/R68S): as the sequence (P01116 whole entry G12C/H95Q) above, with R68S, Q95H counted along it

`C#Cc1c(F)ccc2cc(O)cc(-c3ccc4c(N5CCN(C(=O)C(=C)F)[C@@H](CC#N)C5)nc(OC[C@@]56CCCN5C[C@H](F)C6)nc4c3F)c12` [Compound 4]: the half-life in data set [1] stood at 25.5 min. For the same molecule, the microsomal CLint in data set [1] came to 54.3 µL/min/mg. In data set [1], this molecule showed a CLint scaled of 48.9 mL/min/kg. Also, the GI50 in data set [2] was found to be 9.06 nM; in data set [3], 5.2 nM; in data set [4], 39.4 nM; in data set [5], 50.6 nM. Also, the IC50 in data set [6] stood at 0.44 nM; in data set [7], 1.15 nM.

Take `C#Cc1cccc2cc(O)cc(-c3c(F)cc4c(N5CCN(C(=O)C(=C)F)[C@@H](CC#N)C5)nc(OCC56CCCN5CCC6)nc4c3F)c12` [Compound 7A, 2-((2S)-4-(7-(8-ethynyl-3-hydroxynaphth-1-yl)-6,8-difluoro-2-((tetrahydro-1H-pyrrolizin-7a(5H)-yl)methoxy)quinazolin-4-yl)-1-(2-fluoroacryloyl)piperazin-2-yl)acetonitrile]: the half-life in data set [1] was 38.4 min. Also, in data set [1], the microsomal CLint came to 36.1 µL/min/mg. Also, the CLint scaled in data set [1] amounted to 32.5 mL/min/kg. For the same molecule, the GI50 in data set [2] is 9.03 nM; in data set [3], 5.28 nM; in data set [4], 16.8 nM; in data set [5], 34.6 nM. The IC50 in data set [6] was 0.62 nM; in data set [7] it was 0.6 nM.

Consider `C#Cc1cccc2cc(O)cc(-c3c(F)cc4c(N5CCN(C(=O)C(=C)F)[C@@H](CC#N)C5)nc(OC[C@@]56CCCN5C[C@H](F)C6)nc4c3F)c12` [Compound 8A, 2-((2S)-4-(7-(8-ethynyl-3-hydroxynaphth-1-yl)-6,8-difluoro-2-(((2R,7aS)-2-fluorotetrahydro-1H-pyrrolizin-7a(5H)-yl)methoxy)quinazolin-4-yl)-1-(2-fluoroacryloyl)piperazin-2-yl)acetonitrile], for which the half-life in data set [1] was determined as 26.7 min. Besides, the microsomal CLint in data set [1] is 53 µL/min/mg. Moreover, in data set [1], the intrinsic metabolic clearance (CLint scaled) was 49.7 mL/min/kg. Moreover, the GI50 in data set [2] is 11.6 nM; in data set [3] it was 3.44 nM; in data set [4], 17.8 nM; in data set [5] it was 33.3 nM. In addition, the IC50 stood at 0.24 nM in data set [6] and 0.58 nM in data set [7].

`C#Cc1cccc2cccc(-c3ccc4c(N5CCN(C(=O)C(=C)F)[C@@H](CC#N)C5)nc(OCC56CCCN5CCC6)nc4c3F)c12` [Compound 11, (S)-2-(4-(7-(8-ethynylnaphth-1-yl)-8-fluoro-2-((tetrahydro-1H-pyrrolizin-7a(5H)-yl)methoxy)quinazolin-4-yl)-1-(2-fluoroacryloyl)piperazin-2-yl)acetonitrile] came in with a half-life in data set [1] of 38.8 min. Besides, the microsomal CLint in data set [1] is 35.7 µL/min/mg. Besides, the CLint scaled in data set [1] amounted to 32.1 mL/min/kg. In addition, the GI50 in data set [2] turned out to be 56.7 nM; in data set [3], 25.7 nM; in data set [4] it was 62.6 nM; in data set [5], 69.4 nM. Moreover, the results for the IC50 in data set [6] and in data set [7] were 0.79 nM and 0.86 nM, respectively.

`C#Cc1c(F)ccc2cc(O)cc(-c3ccc4c(N5CCN(C(=O)C(=C)F)[C@@H](CC#N)C5)nc(OCC56CCCN5CCC6)nc4c3F)c12` [Compound 12, (S)-2-(4-(7-(8-ethynyl-7-fluoro-3-hydroxynaphth-1-yl)-8-fluoro-2-((tetrahydro-1H-pyrrolizin-7a(5H)-yl)methoxy)quinazolin-4-yl)-1-(2-fluoroacryloyl)piperazin-2-yl)acetonitrile]: in data set [1], the half-life is 30.9 min. Further, the microsomal CLint in data set [1] turned out to be 56.2 µL/min/mg. The intrinsic clearance (CLint scaled) in data set [1] came out at 49.6 mL/min/kg. For the same molecule, the GI50 in data set [2] was found to be 24.4 nM; in data set [3] it was 26.2 nM; in data set [4], 41.6 nM; in data set [5], 51.4 nM. The half-inhibitory concentration (IC50) turned out to be 0.66 nM in data set [6] and 1.02 nM in data set [7].

In turn, `C#Cc1cccc2cccc(-c3c(F)cc4c(N5CCN(C(=O)C(=C)F)[C@@H](CC#N)C5)nc(OCC56CCCN5CCC6)nc4c3F)c12` [Compound 18B, 2-((2S)-4-(7-(8-ethynylnaphth-1-yl)-6,8-difluoro-2-((tetrahydro-1H-pyrrolizin-7a(5H)-yl)methoxy)quinazolin-4-yl)-1-(2-fluoroacryloyl)piperazin-2-yl)acetonitrile] registered a half-life in data set [1] of 44.2 min. For the same molecule, in data set [1], the microsomal CLint stood at 35.6 µL/min/mg. In addition, the CLint scaled in data set [1] was determined as 33 mL/min/kg. Moreover, the GI50 in data set [2] was 8.92 nM; in data set [3], 4.89 nM; in data set [4], 12.8 nM; in data set [5] it was 29.9 nM. The IC50 was 0.5 nM in data set [6] and 0.68 nM in data set [7].

In turn, `C=C(F)C(=O)N1CCN(c2nc(OCC34CCCN3CCC4)nc3c(F)c(-c4cc(O)cc5cccc(Cl)c45)c(F)cc23)C[C@@H]1CC#N` [Compound 22A, 2-((2S)-4-(7-(8-chloro-3-hydroxynaphth-1-yl)-6,8-difluoro-2-((tetrahydro-1H-pyrrolizin-7a(5H)-yl)methoxy)quinazolin-4-yl)-1-(2-fluoroacryloyl)piperazin-2-yl)acetonitrile] came in with a half-life in data set [1] of 39.2 min. In addition, the microsomal CLint in data set [1] was 35.6 µL/min/mg. The same molecule returned a CLint scaled in data set [1] of 33 mL/min/kg. Further, the GI50 came to 11.1 nM in data set [2], 7.23 nM in data set [3], 23.9 nM in data set [4] and 34.1 nM in data set [5]. In addition, the 50% inhibitory concentration (IC50) in data set [6] was 0.47 nM; in data set [7], 0.76 nM.

What is called half-life is how long it takes for the measured level to halve. A lower half-life goes with fast loss. What is called CLint scaled is the rate of metabolic loss divided by the concentration. A word on the IC50: it is the concentration that inhibits the measured activity by half.

(Values after patent publication US20250154156A1, “QUINAZOLINE DERIVATIVE AS KRAS G12C MUTATION INHIBITOR” (Shenzhen Forward Pharmaceuticals Co., Limited, priority 2022, published 2025).)
